Biological target: T1, APOL1 (Homo sapiens, UniProt O14791)
T1 sequence (O14791 1-398 S342G/I384M): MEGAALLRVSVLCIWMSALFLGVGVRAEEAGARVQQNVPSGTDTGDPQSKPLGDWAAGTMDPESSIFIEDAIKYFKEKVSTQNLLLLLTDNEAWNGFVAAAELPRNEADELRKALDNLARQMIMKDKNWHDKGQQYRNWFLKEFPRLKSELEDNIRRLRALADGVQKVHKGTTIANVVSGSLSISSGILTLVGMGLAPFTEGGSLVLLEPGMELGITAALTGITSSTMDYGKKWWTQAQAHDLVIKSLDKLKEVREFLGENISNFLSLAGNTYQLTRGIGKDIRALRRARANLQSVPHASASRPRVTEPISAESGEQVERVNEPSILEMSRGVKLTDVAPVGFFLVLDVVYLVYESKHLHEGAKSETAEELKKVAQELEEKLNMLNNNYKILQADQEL
Test: MultiTox-Fluor Multiplex Cytotoxicity Assay in tet-inducible APOL1 T-REx-HEK293 cells (cell rescue, ratio of dead to live cells)
Type: cell-based
Details: tet-inducible transgenic APOL1 T-REx-HEK293 cell lines, 50 ng/mL tet, 24 hours; read-out: IP50 (i.e., IC50 for cell proliferation)
Method in brief: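 T-REx-HEK293 cells with tet-inducible APOL1 were treated with compound (10 μM top, 10-point 3-fold dilution, duplicate) plus 50 ng/mL tetracycline for 24 h at 37° C, in DMEM with 2% tet-free FBS. MultiTox-Fluor protease signals gave a dead/live ratio, normalized to no tet (100% viability) and tet alone (0%).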

Row | SMILES | IC50
1 | CCc1cc2c(s1)CCO[C@@]21CCN(Cc2cn(Cc3cnoc3)nn2)[C@@H](C)C1 [Compound 45] | < 0.1 µM
2 | CCc1cc2c(s1)CCO[C@@]21CCN(Cc2cn(CCn3cccn3)nn2)[C@@H](C)C1 [Compound 46] | 0.1 to 0.5 µM
3 | CCc1cc2c(s1)CCO[C@@]21CCN(Cc2cn(CCc3c[nH]cn3)nn2)[C@@H](C)C1 [Compound 48] | < 0.1 µM
4 | CCc1cc2c(s1)CCO[C@@]21CCN(Cc2cn(Cc3cnn(C)c3)nn2)[C@@H](C)C1 [Compound 49] | < 0.1 µM
5 | CCc1cc2c(s1)CCO[C@@]21CCN(Cc2cn(CCNC(=O)c3cnc(C)cn3)nn2)[C@@H](C)C1 [Compound 50] | < 0.1 µM
6 | CCc1cc2c(s1)CCO[C@@]21CCN(Cc2cn(Cc3ncccn3)nn2)[C@@H](C)C1 [Compound 51] | 0.1 to 0.5 µM
7 | CCc1cc2c(s1)CCO[C@@]21CCN(Cc2cn(Cc3nnc4n3CCCC4)nn2)[C@@H](C)C1 [Compound 52] | < 0.1 µM
8 | CCc1cc2c(s1)CCO[C@@]21CCN(Cc2cn(Cc3nc(C)cc(C)n3)nn2)[C@@H](C)C1 [Compound 53] | 0.5 to 1 µM
9 | CCc1cc2c(s1)CCO[C@@]21CCN(Cc2cn(Cc3cn(C)nc3C)nn2)[C@@H](C)C1 [Compound 54] | < 0.1 µM
10 | CCc1cc2c(s1)CCO[C@@]21CCN(Cc2cn(Cc3ccncn3)nn2)[C@@H](C)C1 [Compound 55] | 0.1 to 0.5 µM
11 | CCc1cc2c(s1)CCO[C@@]21CCN(Cc2cn(Cc3nccn3C)nn2)[C@@H](C)C1 [Compound 56] | < 0.1 µM
12 | CCc1cc2c(s1)CCO[C@@]21CCN(Cc2cn(Cc3c[nH]nc3C)nn2)[C@@H](C)C1 [Compound 57] | < 0.1 µM
13 | CCc1cc2c(s1)CCO[C@@]21CCN(Cc2cn(CC(C)n3cncn3)nn2)[C@@H](C)C1 (stereo partly drawn) [Compound 58] | 0.1 to 0.5 µM
14 | CCc1cc2c(s1)CCO[C@@]21CCN(Cc2cn(CC(=O)NC3CC3)nn2)[C@@H](C)C1 [Compound 59] | < 0.1 µM
15 | CCc1cc2c(s1)CCO[C@@]21CCN(Cc2cn(Cc3cnn(CCO)c3)nn2)[C@@H](C)C1 [Compound 60] | < 0.1 µM
16 | CCc1cc2c(s1)CCO[C@@]21CCN(Cc2cn(C3CCCN(C(C)=O)C3)nn2)[C@@H](C)C1 (stereo partly drawn) [Compound 61] | 0.1 to 0.5 µM
17 | CCc1cc2c(s1)CCO[C@@]21CCN(Cc2cn([C@H]3CS(=O)(=O)C[C@H]3O)nn2)[C@@H](C)C1 [Compound 62] | < 0.1 µM
18 | CCc1cc2c(s1)CCO[C@@]21CCN(Cc2cn(CC(=O)N3CCCC3)nn2)[C@@H](C)C1 [Compound 63] | < 0.1 µM
19 | CCc1cc2c(s1)CCO[C@@]21CCN(Cc2cn(Cc3cc(C)n[nH]3)nn2)[C@@H](C)C1 [Compound 64] | < 0.1 µM
20 | CCc1cc2c(s1)CCO[C@@]21CCN(Cc2cn(Cc3nnc[nH]3)nn2)[C@@H](C)C1 [Compound 65] | 0.1 to 0.5 µM
21 | CCc1cc2c(s1)CCO[C@@]21CCN(Cc2cn(Cc3c(C)cc(C)nc3O)nn2)[C@@H](C)C1 [Compound 66] | 0.1 to 0.5 µM
22 | CCc1cc2c(s1)CCO[C@@]21CCN(Cc2cn(CCc3ncn[nH]3)nn2)[C@@H](C)C1 [Compound 67] | < 0.1 µM
23 | CCc1cc2c(s1)CCO[C@@]21CCN(Cc2cn(CCn3ccnc3C)nn2)[C@@H](C)C1 [Compound 68] | 0.1 to 0.5 µM

Row | SMILES | IC50
24 | CCc1cc2c(s1)CCO[C@@]21CCN(Cc2cn(CC(O)c3nccn3C)nn2)[C@@H](C)C1 (stereo partly drawn) [Compound 69] | < 0.1 µM
25 | CCc1cc2c(s1)CCO[C@@]21CCN(Cc2cn(-c3cnc(C)nc3)nn2)[C@@H](C)C1 [Compound 70] | < 0.1 µM
26 | CCc1cc2c(s1)CCO[C@@]21CCN(Cc2cn(-c3cncc(F)c3)nn2)[C@@H](C)C1 [Compound 71] | < 0.1 µM
27 | CCc1cc2c(s1)CCO[C@@]21CCN(Cc2cn(-c3cncnc3)nn2)[C@@H](C)C1 [Compound 72] | < 0.1 µM
28 | CCc1cc2c(s1)CCO[C@@]21CCN(Cc2cn(-c3cccnc3)nn2)[C@@H](C)C1 [Compound 73] | < 0.1 µM
29 | CCc1cc2c(s1)CCO[C@@]21CCN(Cc2cn(CC3(C(O)C(C)C)CC3)nn2)[C@@H](C)C1 (stereo partly drawn) [Compound 74] | 0.1 to 0.5 µM
30 | CCOCCOCC(O)Cn1cc(CN2CC[C@]3(C[C@@H]2C)OCCc2sc(CC)cc23)nn1 (stereo partly drawn) [Compound 75] | < 0.1 µM
31 | CCc1cc2c(s1)CCOC21CCN(Cc2cn(CC(O)c3ccccn3)nn2)C(C)C1 (stereo not drawn) [Compound 76] | 0.1 to 0.5 µM
32 | CCc1cc2c(s1)CCOC21CCN(Cc2cn(CC3(O)CCOC3)nn2)C(C)C1 (stereo not drawn) [Compound 77] | 0.5 to 1 µM
33 | CCc1cc2c(s1)CCO[C@@]21CCN(Cc2cn(CC3CCC4(CC3)COC4)nn2)[C@@H](C)C1 [Compound 78] | 0.1 to 0.5 µM
34 | CCc1cc2c(s1)CCO[C@@]21CCN(Cc2cn(CC3(CO)CCOCC3)nn2)[C@@H](C)C1 [Compound 79] | 0.1 to 0.5 µM
35 | CCc1cc2c(s1)CCO[C@@]21CCN(Cc2cn(CC(C)(C)CCO)nn2)[C@@H](C)C1 [Compound 80] | 0.1 to 0.5 µM
36 | CCc1cc2c(s1)CCO[C@@]21CCN(Cc2cn(CC(=O)NCCO)nn2)[C@@H](C)C1 [Compound 81] | 0.1 to 0.5 µM
37 | CCc1cc2c(s1)CCOC21CCN(Cc2cn(CC(C)CO)nn2)C(C)C1 (stereo not drawn) [Compound 82] | 0.1 to 0.5 µM
38 | CCc1cc2c(s1)CCO[C@@]21CCN(Cc2cn(CC3(CCO)CC3)nn2)[C@@H](C)C1 [Compound 83] | 0.1 to 0.5 µM
39 | CCc1cc2c(s1)CCOC21CCN(Cc2cn(CC(C)(O)COC)nn2)C(C)C1 (stereo not drawn) [Compound 84] | < 0.1 µM
40 | CCCC(O)Cn1cc(CN2CC[C@]3(C[C@@H]2C)OCCc2sc(CC)cc23)nn1 (stereo partly drawn) [Compound 85] | < 0.1 µM
41 | CCc1cc2c(s1)CCOC21CCN(Cc2cn(CC(O)C3CCOCC3)nn2)C(C)C1 (stereo not drawn) [Compound 86] | < 0.1 µM
42 | CCc1cc2c(s1)CCO[C@@]21CCN(Cc2cn(CC3(OCCO)CCOCC3)nn2)[C@@H](C)C1 [Compound 87] | 0.1 to 0.5 µM
43 | CCc1cc2c(s1)CCOC21CCN(Cc2cn(CC(O)CF)nn2)C(C)C1 (stereo not drawn) [Compound 88] | < 0.1 µM
44 | CCc1cc2c(s1)CCO[C@@]21CCN(Cc2cn(CC(O)(CO)CO)nn2)[C@@H](C)C1 [Compound 89] | < 0.1 µM
45 | CCc1cc2c(s1)CCO[C@@]21CCN(Cc2cn(CC(=O)N3CCOCC3)nn2)[C@@H](C)C1 [Compound 90] | 0.1 to 0.5 µM
46 | CCc1cc2c(s1)CCOC21CCN(Cc2cn(CC(O)CS(C)(=O)=O)nn2)C(C)C1 (stereo not drawn) [Compound 91] | < 0.1 µM

Row | SMILES | IC50
47 | CCc1cc2c(s1)CCOC21CCN(Cc2cn(CC(c3cccnc3)N3CCOCC3)nn2)C(C)C1 (stereo not drawn) [Compound 92] | 0.5 to 1 µM
48 | CCc1cc2c(s1)CCO[C@@]21CCN(Cc2cn(CC(C)(O)c3ccccc3)nn2)[C@@H](C)C1 (stereo partly drawn) [Compound 93] | 0.5 to 1 µM
49 | CCc1cc2c(s1)CCO[C@@]21CCN(Cc2cn(CC3(COC)CCOCC3)nn2)[C@@H](C)C1 [Compound 94] | 0.1 to 0.5 µM
50 | CCc1cc2c(s1)CCO[C@@]21CCN(Cc2cn(CC3COCCN3)nn2)[C@@H](C)C1 (stereo partly drawn) [Compound 95] | < 0.1 µM
51 | CCc1cc2c(s1)CCO[C@@]21CCN(Cc2cn(CC3CS(=O)(=O)CCO3)nn2)[C@@H](C)C1 (stereo partly drawn) [Compound 96] | < 0.1 µM
52 | CCc1cc2c(s1)CCO[C@@]21CCN(Cc2cn(CC(CC)(CC)OC)nn2)[C@@H](C)C1 [Compound 97] | < 0.1 µM
53 | CCc1cc2c(s1)CCO[C@@]21CCN(Cc2cn(CC(C)(C)OCCO)nn2)[C@@H](C)C1 [Compound 98] | 0.1 to 0.5 µM
54 | CCc1cc2c(s1)CCO[C@@]21CCN(Cc2cn(CC(O)CN3CCCC3=O)nn2)[C@@H](C)C1 (stereo partly drawn) [Compound 99] | < 0.1 µM
55 | CCc1cc2c(s1)CCO[C@@]21CCN(Cc2cn(CC(C)(C)C3CCOCC3)nn2)[C@@H](C)C1 [Compound 100] | 0.1 to 0.5 µM
56 | CCc1cc2c(s1)CCOC21CCN(Cc2cn(CC(C)(CO)COC)nn2)C(C)C1 (stereo not drawn) [Compound 101] | 0.1 to 0.5 µM
57 | CCc1cc2c(s1)CCOC21CCN(Cc2cn(CC3(C)COCCO3)nn2)C(C)C1 (stereo not drawn) [Compound 102] | < 0.1 µM
58 | CCc1cc2c(s1)CCO[C@@]21CCN(Cc2cn(CC3(C4(O)CCOCC4)CC3)nn2)[C@@H](C)C1 [Compound 103] | 0.1 to 0.5 µM
59 | CCc1cc2c(s1)CCO[C@@]21CCN(Cc2cn(CC3(OCCO)CCC3)nn2)[C@@H](C)C1 [Compound 104] | 0.1 to 0.5 µM
60 | CCc1cc2c(s1)CCO[C@@]21CCN(Cc2cn(CC3(C4CCOCC4)CC3)nn2)[C@@H](C)C1 [Compound 105] | 0.5 to 1 µM
61 | CCc1cc2c(s1)CCO[C@@]21CCN(Cc2cn(CC3(CO)CCOC3)nn2)[C@@H](C)C1 (stereo partly drawn) [Compound 106] | 0.1 to 0.5 µM
62 | CCc1cc2c(s1)CCOC21CCN(Cc2cn(CC(CO)C(C)C)nn2)C(C)C1 (stereo not drawn) [Compound 107] | < 0.1 µM
63 | CCc1cc2c(s1)CCO[C@@]21CCN(Cc2cn(CC(C)COC)nn2)[C@@H](C)C1 (stereo partly drawn) [Compound 108] | 0.1 to 0.5 µM
64 | CCc1cc2c(s1)CCO[C@@]21CCN(Cc2cn(CC(C)(C)C(C)(C)O)nn2)[C@@H](C)C1 [Compound 109] | 0.1 to 0.5 µM
65 | CCc1cc2c(s1)CCO[C@@]21CCN(Cc2cn(CC(C)(CO)OC)nn2)[C@@H](C)C1 (stereo partly drawn) [Compound 110] | 0.1 to 0.5 µM
66 | CCc1cc2c(s1)CCO[C@@]21CCN(Cc2cn(CC(C)(C)C3(O)CCOCC3)nn2)[C@@H](C)C1 [Compound 111] | 0.1 to 0.5 µM
67 | CCc1cc2c(s1)CCO[C@@]21CCN(Cc2cn(CC(O)Cc3ccc(F)cc3)nn2)[C@@H](C)C1 (stereo partly drawn) [Compound 112] | < 0.1 µM
68 | CCc1cc2c(s1)CCO[C@@]21CCN(Cc2cn(C[C@H](O)C(C)(C)C)nn2)[C@@H](C)C1 [Compound 113] | < 0.1 µM
69 | CCc1cc2c(s1)CCO[C@@]21CCN(Cc2cn(CC3(C)CCOCC3)nn2)[C@@H](C)C1 [Compound 114] | 0.1 to 0.5 µM

Reference: patent US20250171459A1, “2-METHYL-4',5'-DIHYDROSPIRO[PIPERIDINE-4,7'-THIENO[2,3-C]PYRAN] DERIVATIVES AS INHIBITORS OF APOL1 AND METHODS OF USING SAME” (Vertex Pharmaceuticals Incorporated, priority 2022, published 2025)
